Assay results published in patent US9957263B2, “Bromodomain inhibitors” (AbbVie Inc., priority 2013, dated 2018).

Assays:
BRD4 (BDI_K57-E168) = BRD4 (BDI_K57-E168) (Homo sapiens (Human), UniProt O60885); test: TR-FRET bromodomain binding assay, BRD4 first bromodomain; details: His-tagged BD1, Alexa647-labeled probe 100 nM
Summary of the method: (§1)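 His-tagged BRD4 BD1 (K57-E168) or BD2 at 8 nM, 1 nM Eu-anti-His antibody and Alexa647 BET-inhibitor probe (100 nM for BDI, 30 nM for BDII) in pH 6.0 phosphate buffer, 2% DMSO, compound 50 μM-0.85 nM; 1 h at RT, TR-FRET read. IC50 by 4-parameter fit, Ki from probe Kd and concentration.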

BRD4 (BDII_E352-M457) = BRD4 (BDII_E352-M457) (Homo sapiens (Human), UniProt O60885); test: TR-FRET bromodomain binding assay, BRD4 second bromodomain; details: His-tagged BD2, Alexa647-labeled probe 30 nM
Summary of the method: as §1

`Cn1cc(-c2cc(S(C)(=O)=O)ccc2Oc2ccc(F)cc2F)c2cc(CN3CCOCC3c3ccco3)[nH]c2c1=O` (stereo not drawn) [Example 127, 4-[2-(2,4-difluorophenoxy)-5-(methylsulfonyl)phenyl]-2-{[3-(furan-2-yl)morpholin-4-yl]methyl}-6-methyl-1,6-dihydro-7H-pyrrolo[2,3-c]pyridin-7-one] gave a Ki (BRD4 (BDI_K57-E168)) of 15.8 nM and a Ki (BRD4 (BDII_E352-M457)) of 93.8 nM.

In the case of `Cc1nnc(C)n1C1CCN(Cc2cc3c(-c4cc(S(C)(=O)=O)ccc4Oc4ccc(F)cc4F)cn(C)c(=O)c3[nH]2)CC1` [Example 128, 4-[2-(2,4-difluorophenoxy)-5-(methylsulfonyl)phenyl]-2-{[4-(3,5-dimethyl-4H-1,2,4-triazol-4-yl)piperidin-1-yl]methyl}-6-methyl-1,6-dihydro-7H-pyrrolo[2,3-c]pyridin-7-one], the Ki (BRD4 (BDI_K57-E168)) is reported as 47.8 nM and the Ki (BRD4 (BDII_E352-M457)) is reported as 182 nM.

`Cn1cc(-c2cc(S(C)(=O)=O)ccc2Oc2ccc(F)cc2F)c2cc(CN3CCCN(c4ccccn4)CC3)[nH]c2c1=O` [Example 126, 4-[2-(2,4-difluorophenoxy)-5-(methylsulfonyl)phenyl]-6-methyl-2-{[4-(pyridin-2-yl)-1,4-diazepan-1-yl]methyl}-1,6-dihydro-7H-pyrrolo[2,3-c]pyridin-7-one] showed a Ki (BRD4 (BDI_K57-E168)) of 54.5 nM and a Ki (BRD4 (BDII_E352-M457)) of 276 nM.

`CCS(=O)(=O)c1ccc(OCC2CC2(F)F)c(-c2cn(C)c(=O)c3[nH]c(CN4CCN(c5cccnc5)CC4)cc23)c1` (stereo not drawn) [Example 20, 4-{2-[(2,2-difluorocyclopropyl)methoxy]-5-(ethylsulfonyl)phenyl}-6-methyl-2-{[4-(pyridin-3-yl)piperazin-1-yl]methyl}-1,6-dihydro-7H-pyrrolo[2,3-c]pyridin-7-one] gave a Ki (BRD4 (BDI_K57-E168)) of 4.9 nM and a Ki (BRD4 (BDII_E352-M457)) of 48 nM.

`Cn1cc(-c2cc(S(C)(=O)=O)ccc2Oc2cccc(NS(=O)(=O)c3cccc([N+](=O)[O-])c3)c2)c2cc[nH]c2c1=O` [Example 51, N-{3-[2-(6-methyl-7-oxo-6,7-dihydro-1H-pyrrolo[2,3-c]pyridin-4-yl)-4-(methylsulfonyl)phenoxy]phenyl}-3-nitrobenzenesulfonamide] showed a Ki (BRD4 (BDI_K57-E168)) of 5 nM and a Ki (BRD4 (BDII_E352-M457)) of 3 nM.

`Cn1cc(-c2cc(S(C)(=O)=O)ccc2Oc2cccc(C(=O)N3CCN(C4CCCC4)CC3)c2)c2cc[nH]c2c1=O` [Example 28, 4-[2-{3-[(4-cyclopentylpiperazin-1-yl)carbonyl]phenoxy}-5-(methylsulfonyl)phenyl]-6-methyl-1,6-dihydro-7H-pyrrolo[2,3-c]pyridin-7-one] showed a Ki (BRD4 (BDI_K57-E168)) of 13 nM and a Ki (BRD4 (BDII_E352-M457)) of 11 nM.

Work on `Cn1cc(-c2cc(S(C)(=O)=O)ccc2Oc2cccc(C(=O)NC3CC3)c2)c2cc[nH]c2c1=O` [Example 21, N-cyclopropyl-3-[2-(6-methyl-7-oxo-6,7-dihydro-1H-pyrrolo[2,3-c]pyridin-4-yl)-4-(methylsulfonyl)phenoxy]benzamide] yielded a Ki (BRD4 (BDI_K57-E168)) of 33 nM and a Ki (BRD4 (BDII_E352-M457)) of 10 nM.

`CCS(=O)(=O)c1ccc(Oc2c(C)cccc2Cl)c(-c2cn(C)c(=O)c3[nH]c(C(=O)NC(C)C(=O)NC)cc23)c1` (stereo not drawn) [Example 121, 4-[2-(2-chloro-6-methylphenoxy)-5-(ethylsulfonyl)phenyl]-6-methyl-N-[1-(methylamino)-1-oxopropan-2-yl]-7-oxo-6,7-dihydro-1H-pyrrolo[2,3-c]pyridine-2-carboxamide] was tested, and the Ki (BRD4 (BDI_K57-E168)) was 62.1 nM and the Ki (BRD4 (BDII_E352-M457)) was 7.2 nM.

`CCNC(=O)/C=C/c1cc2c(-c3cc(S(=O)(=O)CC)ccc3Oc3c(C)cccc3C)cn(C)c(=O)c2[nH]1` [Example 134, (2E)-3-{4-[2-(2,6-dimethylphenoxy)-5-(ethylsulfonyl)phenyl]-6-methyl-7-oxo-6,7-dihydro-1H-pyrrolo[2,3-c]pyridin-2-yl}-N-ethylprop-2-enamide] gave a Ki (BRD4 (BDI_K57-E168)) of 23.4 nM and a Ki (BRD4 (BDII_E352-M457)) of 1.62 nM.

For `CCNC(=O)c1cc2c(-c3ccc(C(=O)N(CC(=O)NC)Cc4ccccn4)cc3Oc3c(C)cccc3C)cn(C)c(=O)c2[nH]1` [Example 153, 4-[2-(2,6-dimethylphenoxy)-4-{[2-(methylamino)-2-oxoethyl](pyridin-2-ylmethyl)carbamoyl}phenyl]-N-ethyl-6-methyl-7-oxo-6,7-dihydro-1H-pyrrolo[2,3-c]pyridine-2-carboxamide], the Ki (BRD4 (BDI_K57-E168)) was 1040 nM and the Ki (BRD4 (BDII_E352-M457)) was 2.61 nM.

`Cn1cc(-c2cc(S(C)(=O)=O)ccc2Oc2cccc(C(=O)NC[C@H]3CCCO3)c2)c2cc[nH]c2c1=O` [Example 34, 3-[2-(6-methyl-7-oxo-6,7-dihydro-1H-pyrrolo[2,3-c]pyridin-4-yl)-4-(methylsulfonyl)phenoxy]-N-[(2R)-tetrahydrofuran-2-ylmethyl]benzamide] was tested, and the Ki (BRD4 (BDI_K57-E168)) was 15 nM and the Ki (BRD4 (BDII_E352-M457)) was 3.6 nM.

With `Cn1cc(-c2cc(S(C)(=O)=O)ccc2Oc2cccc(NS(=O)(=O)c3ccccc3C#N)c2)c2cc[nH]c2c1=O` [Example 55, 2-cyano-N-{3-[2-(6-methyl-7-oxo-6,7-dihydro-1H-pyrrolo[2,3-c]pyridin-4-yl)-4-(methylsulfonyl)phenoxy]phenyl}benzenesulfonamide] the Ki (BRD4 (BDI_K57-E168)) was 6.9 nM and the Ki (BRD4 (BDII_E352-M457)) was 2.8 nM.

With `COc1ccc(S(=O)(=O)N2CCC(Nc3ccc(S(C)(=O)=O)cc3-c3cn(C)c(=O)c4[nH]ccc34)CC2)cc1` [Example 104, 4-[2-({1-[(4-methoxyphenyl)sulfonyl]piperidin-4-yl}amino)-5-(methylsulfonyl)phenyl]-6-methyl-1,6-dihydro-7H-pyrrolo[2,3-c]pyridin-7-one] the Ki (BRD4 (BDI_K57-E168)) was 4.6 nM and the Ki (BRD4 (BDII_E352-M457)) was 4 nM.

With `COc1ccc(CNc2cccc(Oc3ccc(S(C)(=O)=O)cc3-c3cn(C)c(=O)c4[nH]ccc34)c2)cc1` [Example 79, 4-[2-{3-[(4-methoxybenzyl)amino]phenoxy}-5-(methylsulfonyl)phenyl]-6-methyl-1,6-dihydro-7H-pyrrolo[2,3-c]pyridin-7-one] the Ki (BRD4 (BDI_K57-E168)) was 7.8 nM and the Ki (BRD4 (BDII_E352-M457)) was 2.7 nM.

With `CN(C)c1cccc2c(S(=O)(=O)Nc3cccc(Oc4ccc(S(C)(=O)=O)cc4-c4cn(C)c(=O)c5[nH]ccc45)c3)cccc12` [Example 45, 5-(dimethylamino)-N-{3-[2-(6-methyl-7-oxo-6,7-dihydro-1H-pyrrolo[2,3-c]pyridin-4-yl)-4-(methylsulfonyl)phenoxy]phenyl}naphthalene-1-sulfonamide] the Ki (BRD4 (BDI_K57-E168)) was 16 nM and the Ki (BRD4 (BDII_E352-M457)) was 3.3 nM.

Work on `CN(C)CCN1CCN(C(=O)c2cccc(Oc3ccc(S(C)(=O)=O)cc3-c3cn(C)c(=O)c4[nH]ccc34)c2)CC1` [Example 29, 4-{2-[3-({4-[2-(dimethylamino)ethyl]piperazin-1-yl}carbonyl)phenoxy]-5-(methylsulfonyl)phenyl}-6-methyl-1,6-dihydro-7H-pyrrolo[2,3-c]pyridin-7-one] yielded a Ki (BRD4 (BDI_K57-E168)) of 19 nM and a Ki (BRD4 (BDII_E352-M457)) of 9.1 nM.

Compound `Cc1noc(C2CCCN2Cc2cc3c(-c4cc(S(C)(=O)=O)ccc4Oc4ccc(F)cc4F)cn(C)c(=O)c3[nH]2)n1` (stereo not drawn) [Example 131, 4-[2-(2,4-difluorophenoxy)-5-(methylsulfonyl)phenyl]-6-methyl-2-{[2-(3-methyl-1,2,4-oxadiazol-5-yl)pyrrolidin-1-yl]methyl}-1,6-dihydro-7H-pyrrolo[2,3-c]pyridin-7-one] has a Ki (BRD4 (BDI_K57-E168)) of 49.7 nM and a Ki (BRD4 (BDII_E352-M457)) of 165 nM.

Work on `Cn1cc(-c2cc(S(C)(=O)=O)ccc2Oc2cccc(NCc3cccc(C#N)c3)c2)c2cc[nH]c2c1=O` [Example 60, 3-[({3-[2-(6-methyl-7-oxo-6,7-dihydro-1H-pyrrolo[2,3-c]pyridin-4-yl)-4-(methylsulfonyl)phenoxy]phenyl}amino)methyl]benzonitrile] yielded a Ki (BRD4 (BDI_K57-E168)) of 7.9 nM and a Ki (BRD4 (BDII_E352-M457)) of 2 nM.

Work on `COCC(=O)N1CCC(Nc2ccc(S(C)(=O)=O)cc2-c2cn(C)c(=O)c3[nH]ccc23)CC1` [Example 95, 4-[2-{[1-(methoxyacetyl)piperidin-4-yl]amino}-5-(methylsulfonyl)phenyl]-6-methyl-1,6-dihydro-7H-pyrrolo[2,3-c]pyridin-7-one] yielded a Ki (BRD4 (BDI_K57-E168)) of 22 nM and a Ki (BRD4 (BDII_E352-M457)) of 16 nM.

In the case of `CCNC(=O)c1cc2c(-c3cc(S(=O)(=O)CC)ccc3Oc3c(C)cccc3Cn3ccccc3=O)cn(C)c(=O)c2[nH]1` [Example 158, N-ethyl-4-[5-(ethylsulfonyl)-2-{2-methyl-6-[(2-oxopyridin-1(2H)-yl)methyl]phenoxy}phenyl]-6-methyl-7-oxo-6,7-dihydro-1H-pyrrolo[2,3-c]pyridine-2-carboxamide], the Ki (BRD4 (BDI_K57-E168)) is reported as 883 nM and the Ki (BRD4 (BDII_E352-M457)) is reported as 28.5 nM.

Compound `Cn1cc(-c2cc(S(C)(=O)=O)ccc2Oc2cccc(NS(=O)(=O)c3ccc(F)cc3F)c2)c2cc[nH]c2c1=O` [Example 47, 2,4-difluoro-N-{3-[2-(6-methyl-7-oxo-6,7-dihydro-1H-pyrrolo[2,3-c]pyridin-4-yl)-4-(methylsulfonyl)phenoxy]phenyl}benzenesulfonamide] has a Ki (BRD4 (BDI_K57-E168)) of 5.9 nM and a Ki (BRD4 (BDII_E352-M457)) of 2.7 nM.

For `Cn1cc(-c2cc(S(C)(=O)=O)ccc2Oc2cccc(NCC3CCCO3)c2)c2cc[nH]c2c1=O` (stereo not drawn) [Example 65, 6-methyl-4-[5-(methylsulfonyl)-2-{3-[(tetrahydrofuran-2-ylmethyl)amino]phenoxy}phenyl]-1,6-dihydro-7H-pyrrolo[2,3-c]pyridin-7-one], the Ki (BRD4 (BDI_K57-E168)) was 6.9 nM and the Ki (BRD4 (BDII_E352-M457)) was 2.1 nM.

In the case of `CN1CCC(N2CCN(Cc3cc4c(-c5cc(S(C)(=O)=O)ccc5Oc5ccc(F)cc5F)cn(C)c(=O)c4[nH]3)CC2)CC1` [Example 125, 4-[2-(2,4-difluorophenoxy)-5-(methylsulfonyl)phenyl]-6-methyl-2-{[4-(1-methylpiperidin-4-yl)piperazin-1-yl]methyl}-1,6-dihydro-7H-pyrrolo[2,3-c]pyridin-7-one], the Ki (BRD4 (BDI_K57-E168)) is reported as 8.47 nM and the Ki (BRD4 (BDII_E352-M457)) is reported as 189 nM.

Compound `CCS(=O)(=O)c1ccc(Oc2ccc(Cl)cc2CCCN2CCOCC2)c(-c2cn(C)c(=O)c3[nH]ccc23)c1` [Example 83, 4-[2-{4-chloro-2-[3-(morpholin-4-yl)propyl]phenoxy}-5-(ethylsulfonyl)phenyl]-6-methyl-1,6-dihydro-7H-pyrrolo[2,3-c]pyridin-7-one] has a Ki (BRD4 (BDI_K57-E168)) of 5.3 nM and a Ki (BRD4 (BDII_E352-M457)) of 3.5 nM.
